Laboratory results from patent US10300155B2, “Alpha-synuclein ligands” (Washington University, priority 2015, dated 2019).
Values joined by “and” are separate entries in the source; they are usually repeats but may differ in a detail not shown here. Equal values may be shown once.

Assay: Biodistribution in male Balb/C mice
Type: in vivo
Details: for Biodistribution: Blood / Biodistribution: Bone / Biodistribution: Brain / Biodistribution: Fat / Biodistribution: Heart / Biodistribution: Kidney / Biodistribution: Liver / Biodistribution: Lung / Biodistribution: Muscle / Biodistribution: Pancreas / Biodistribution: Spleen: tail vein, mean ± SD, n = 4; for crossing of the blood brain barrier: judged from brain uptake at 5 min
Method: For the biodistribution studies, 100˜130 μCi of [^11C] TZ-20-35 in ˜100 μL of 10% ethanol/saline solution (v/v) was injected via the tail vein into mature male Balb/C mice (19-24 g) under anesthesia (2.5% isoflurane in oxygen at a flow rate of 1 mL/min). A group of at least four […] were used for each time point. […] The whole brain was quickly harvested. At the same time, samples of blood, heart, lung, liver, spleen, pancreas, kidney, muscle, fat, and tail were dissected. All the tissue samples were collected in tared tubes and counted in an automated gamma counter (Beckman Gamma 8000 well counter) with standards, prepared by diluting the injectate. The counted tissues were then weighed, and the % ID/g was calculated (Table 4).

O=C(Nc1ccc(OCC[18F])cc1)c1ccc(/C=C/c2ccncc2)cc1 [[^18F]TZ-23-88]
Biodistribution: Blood (5 min post injection): 2.50 ± 0.13 % ID/g
Biodistribution: Bone (5 min post injection): 4.07 % ID/g and 4.07 ± 0.50 % ID/g
Biodistribution: Brain (5 min post injection): 4.59 % ID/g and 4.69 ± 0.70 % ID/g
Biodistribution: Fat (5 min post injection): 2.43 ± 0.42 % ID/g
Biodistribution: Heart (5 min post injection): 4.82 ± 0.47 % ID/g
Biodistribution: Kidney (5 min post injection): 35.67 ± 1.48 % ID/g
Biodistribution: Liver (5 min post injection): 16.30 ± 3.53 % ID/g
Biodistribution: Lung (5 min post injection): 8.50 ± 0.60 % ID/g
Biodistribution: Muscle (5 min post injection): 2.60 ± 0.19 % ID/g
Biodistribution: Pancreas (5 min post injection): 4.91 ± 0.68 % ID/g
Biodistribution: Spleen (5 min post injection): 3.12 ± 0.12 % ID/g
Biodistribution: Blood (30 min post injection): 2.30 ± 0.05 % ID/g
Biodistribution: Bone (30 min post injection): 28.50 % ID/g and 28.50 ± 2.81 % ID/g
Biodistribution: Brain (30 min post injection): 4.07 % ID/g and 4.07 ± 0.21 % ID/g
Biodistribution: Fat (30 min post injection): 1.70 ± 0.17 % ID/g
Biodistribution: Heart (30 min post injection): 2.23 ± 0.06 % ID/g
Biodistribution: Kidney (30 min post injection): 15.72 ± 1.06 % ID/g
Biodistribution: Liver (30 min post injection): 19.56 ± 0.97 % ID/g
Biodistribution: Lung (30 min post injection): 2.57 ± 0.15 % ID/g
Biodistribution: Muscle (30 min post injection): 1.35 ± 0.04 % ID/g
Biodistribution: Pancreas (30 min post injection): 3.02 ± 0.19 % ID/g
Biodistribution: Spleen (30 min post injection): 1.59 ± 0.08 % ID/g
Biodistribution: Blood (60 min post injection): 1.28 ± 0.06 % ID/g
Biodistribution: Bone (60 min post injection): 42.68 % ID/g and 42.68 ± 1.69 % ID/g
Biodistribution: Brain (60 min post injection): 3.21 % ID/g and 3.21 ± 0.14 % ID/g
Biodistribution: Fat (60 min post injection): 0.69 ± 0.10 % ID/g
Biodistribution: Heart (60 min post injection): 1.23 ± 0.05 % ID/g
Biodistribution: Kidney (60 min post injection): 5.59 ± 0.29 % ID/g
Biodistribution: Liver (60 min post injection): 10.71 ± 0.80 % ID/g
Biodistribution: Lung (60 min post injection): 1.31 ± 0.07 % ID/g
Biodistribution: Muscle (60 min post injection): 0.75 ± 0.07 % ID/g
Biodistribution: Pancreas (60 min post injection): 1.84 ± 0.33 % ID/g
Biodistribution: Spleen (60 min post injection): 0.90 ± 0.07 % ID/g
Biodistribution: Blood (120 min post injection): 0.70 ± 0.05 % ID/g
Biodistribution: Bone (120 min post injection): 49.39 % ID/g and 49.39 ± 8.21 % ID/g
Biodistribution: Brain (120 min post injection): 2.37 % ID/g and 2.37 ± 0.14 % ID/g
Biodistribution: Fat (120 min post injection): 0.23 ± 0.12 % ID/g
Biodistribution: Heart (120 min post injection): 0.71 ± 0.12 % ID/g
Biodistribution: Kidney (120 min post injection): 1.94 ± 0.29 % ID/g
Biodistribution: Liver (120 min post injection): 5.59 ± 0.39 % ID/g
Biodistribution: Lung (120 min post injection): 0.71 ± 0.09 % ID/g
Biodistribution: Muscle (120 min post injection): 0.55 ± 0.21 % ID/g
Biodistribution: Pancreas (120 min post injection): 0.98 ± 0.10 % ID/g
Biodistribution: Spleen (120 min post injection): 0.47 ± 0.04 % ID/g
crossing of the blood brain barrier: can cross the blood brain barrier and enter the brain
defluorination (judged from increasing bone uptake in the mice): strong defluorination

O=C(Nc1ccc(OCCC[18F])cc1)c1ccc(/C=C/c2ccncc2)cc1 [[^18F]TZ-23-92]
Biodistribution: Blood (5 min post injection): 2.40 ± 0.39 % ID/g
Biodistribution: Bone (5 min post injection): 3.31 % ID/g and 3.31 ± 0.74 % ID/g
Biodistribution: Brain (5 min post injection): 1.51 % ID/g and 1.52 ± 0.18 % ID/g
Biodistribution: Fat (5 min post injection): 1.79 ± 0.55 % ID/g
Biodistribution: Heart (5 min post injection): 2.93 ± 0.34 % ID/g
Biodistribution: Kidney (5 min post injection): 11.17 ± 0.41 % ID/g
Biodistribution: Liver (5 min post injection): 52.44 ± 3.84 % ID/g
Biodistribution: Lung (5 min post injection): 7.70 ± 0.85 % ID/g
Biodistribution: Muscle (5 min post injection): 1.47 ± 0.16 % ID/g
Biodistribution: Pancreas (5 min post injection): 2.03 ± 0.19 % ID/g
Biodistribution: Spleen (5 min post injection): 23.73 ± 4.54 % ID/g
Biodistribution: Blood (30 min post injection): 2.42 ± 0.19 % ID/g
Biodistribution: Bone (30 min post injection): 39.47 % ID/g and 39.48 ± 10.28 % ID/g
Biodistribution: Brain (30 min post injection): 1.55 % ID/g and 1.56 ± 0.08 % ID/g
Biodistribution: Fat (30 min post injection): 1.34 ± 0.30 % ID/g
Biodistribution: Heart (30 min post injection): 2.19 ± 0.19 % ID/g
Biodistribution: Kidney (30 min post injection): 9.10 ± 0.34 % ID/g
Biodistribution: Liver (30 min post injection): 14.47 ± 1.13 % ID/g
Biodistribution: Lung (30 min post injection): 2.30 ± 0.25 % ID/g
Biodistribution: Muscle (30 min post injection): 1.30 ± 0.16 % ID/g
Biodistribution: Pancreas (30 min post injection): 1.87 ± 0.23 % ID/g
Biodistribution: Spleen (30 min post injection): 1.69 ± 0.15 % ID/g
Biodistribution: Blood (60 min post injection): 0.84 ± 0.05 % ID/g
Biodistribution: Bone (60 min post injection): 68.78 % ID/g and 68.78 ± 6.75 % ID/g
Biodistribution: Brain (60 min post injection): 1.46 % ID/g and 1.46 ± 0.16 % ID/g
Biodistribution: Fat (60 min post injection): 0.58 ± 0.13 % ID/g
Biodistribution: Heart (60 min post injection): 0.90 ± 0.07 % ID/g
Biodistribution: Kidney (60 min post injection): 3.87 ± 0.36 % ID/g
Biodistribution: Liver (60 min post injection): 7.00 ± 0.33 % ID/g
Biodistribution: Lung (60 min post injection): 0.83 ± 0.05 % ID/g
Biodistribution: Muscle (60 min post injection): 0.55 ± 0.06 % ID/g
Biodistribution: Pancreas (60 min post injection): 0.98 ± 0.08 % ID/g
Biodistribution: Spleen (60 min post injection): 0.61 ± 0.04 % ID/g
Biodistribution: Blood (120 min post injection): 0.32 ± 0.02 % ID/g
Biodistribution: Bone (120 min post injection): 70.20 % ID/g and 70.20 ± 15.04 % ID/g
Biodistribution: Brain (120 min post injection): 1.0 % ID/g and 1.00 ± 0.11 % ID/g
Biodistribution: Fat (120 min post injection): 0.29 ± 0.10 % ID/g
Biodistribution: Heart (120 min post injection): 0.31 ± 0.02 % ID/g
Biodistribution: Kidney (120 min post injection): 1.67 ± 0.23 % ID/g
Biodistribution: Liver (120 min post injection): 3.50 ± 0.48 % ID/g
Biodistribution: Lung (120 min post injection): 0.36 ± 0.03 % ID/g
Biodistribution: Muscle (120 min post injection): 0.33 ± 0.26 % ID/g
Biodistribution: Pancreas (120 min post injection): 0.61 ± 0.13 % ID/g
Biodistribution: Spleen (120 min post injection): 0.24 ± 0.01 % ID/g
crossing of the blood brain barrier: can cross BBB and enter the brain

COc1ccc(NC(=O)c2ccc(/C=C/c3ccncc3)cc2)cc1 [[^11C]TZ-20-83]
brain uptake and washout (assessment in words) (5 to 60 min post injection): brain uptake and washout aren't significant
Biodistribution: Blood (5 min post injection): 1.93 ± 0.15 % ID/g
Biodistribution: Brain (5 min post injection): 1.93 % ID/g and 1.93 ± 0.29 % ID/g
Biodistribution: Fat (5 min post injection): 1.94 ± 0.20 % ID/g
Biodistribution: Heart (5 min post injection): 2.31 ± 0.37 % ID/g
Biodistribution: Kidney (5 min post injection): 17.55 ± 2.61 % ID/g
Biodistribution: Liver (5 min post injection): 37.98 ± 3.78 % ID/g
Biodistribution: Lung (5 min post injection): 11.22 ± 0.59 % ID/g
Biodistribution: Muscle (5 min post injection): 1.18 ± 0.24 % ID/g
Biodistribution: Pancreas (5 min post injection): 3.09 ± 0.39 % ID/g
Biodistribution: Spleen (5 min post injection): 18.77 ± 3.38 % ID/g
organ recovery (30 min post injection): 58%
Biodistribution: Blood (30 min post injection): 1.59 ± 0.42 % ID/g
Biodistribution: Brain (30 min post injection): 1.63 % ID/g and 1.63 ± 0.33 % ID/g
Biodistribution: Fat (30 min post injection): 1.73 ± 0.36 % ID/g
Biodistribution: Heart (30 min post injection): 1.79 ± 0.35 % ID/g
Biodistribution: Kidney (30 min post injection): 9.98 ± 1.76 % ID/g
Biodistribution: Liver (30 min post injection): 17.94 ± 3.86 % ID/g
Biodistribution: Lung (30 min post injection): 4.10 ± 0.96 % ID/g
Biodistribution: Muscle (30 min post injection): 1.17 ± 0.23 % ID/g
Biodistribution: Pancreas (30 min post injection): 5.10 ± 1.09 % ID/g
Biodistribution: Spleen (30 min post injection): 3.49 ± 0.84 % ID/g
organ recovery (60 min post injection): 38%
Biodistribution: Blood (60 min post injection): 1.56 ± 0.12 % ID/g
Biodistribution: Brain (60 min post injection): 1.25 % ID/g and 1.25 ± 0.11 % ID/g
Biodistribution: Fat (60 min post injection): 1.05 ± 0.22 % ID/g
Biodistribution: Heart (60 min post injection): 1.48 ± 0.05 % ID/g
Biodistribution: Kidney (60 min post injection): 5.82 ± 0.47 % ID/g
Biodistribution: Liver (60 min post injection): 13.36 ± 1.75 % ID/g
Biodistribution: Lung (60 min post injection): 2.93 ± 0.22 % ID/g
Biodistribution: Muscle (60 min post injection): 0.92 ± 0.14 % ID/g
Biodistribution: Pancreas (60 min post injection): 6.96 ± 0.51 % ID/g
Biodistribution: Spleen (60 min post injection): 3.21 ± 0.76 % ID/g
